The record followed here is ChEMBL document CHEMBL5113406, “Structure-based discovery and development of novel O-GlcNAcase inhibitors for the treatment of Alzheimer's disease” (Eur J Med Chem, 2022).

In one data set the target is T1, Protein O-GlcNAcase (Homo sapiens, UniProt O60502).
T1 sequence (O60502 whole entry): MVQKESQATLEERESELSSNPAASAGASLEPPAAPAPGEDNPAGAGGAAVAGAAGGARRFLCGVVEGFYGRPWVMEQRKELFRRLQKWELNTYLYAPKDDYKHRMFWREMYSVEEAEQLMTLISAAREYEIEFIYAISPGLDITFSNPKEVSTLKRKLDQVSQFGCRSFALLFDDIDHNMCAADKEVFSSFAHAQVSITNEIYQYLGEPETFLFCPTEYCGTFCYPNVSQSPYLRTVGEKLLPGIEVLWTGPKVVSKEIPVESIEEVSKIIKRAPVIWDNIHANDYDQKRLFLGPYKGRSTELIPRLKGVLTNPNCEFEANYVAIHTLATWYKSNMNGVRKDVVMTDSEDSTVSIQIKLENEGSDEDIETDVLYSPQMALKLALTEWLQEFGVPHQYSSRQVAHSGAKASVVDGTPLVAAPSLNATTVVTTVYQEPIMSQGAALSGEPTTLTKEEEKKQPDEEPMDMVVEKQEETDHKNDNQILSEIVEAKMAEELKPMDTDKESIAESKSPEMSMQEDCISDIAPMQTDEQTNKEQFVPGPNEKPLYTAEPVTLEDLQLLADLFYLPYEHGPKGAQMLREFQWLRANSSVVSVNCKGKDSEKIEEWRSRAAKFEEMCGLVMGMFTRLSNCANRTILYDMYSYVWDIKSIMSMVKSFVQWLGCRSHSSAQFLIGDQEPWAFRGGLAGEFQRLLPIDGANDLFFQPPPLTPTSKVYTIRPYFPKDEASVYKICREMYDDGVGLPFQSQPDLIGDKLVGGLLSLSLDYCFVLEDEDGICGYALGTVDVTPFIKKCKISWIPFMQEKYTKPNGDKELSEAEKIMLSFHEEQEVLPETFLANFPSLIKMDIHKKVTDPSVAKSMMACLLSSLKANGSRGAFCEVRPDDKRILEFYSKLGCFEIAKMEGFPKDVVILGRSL
Put plainly: Inhibition of human recombinant OGA pretreated for 20 mins followed by 4-Methylumbelliferyl N-acetyl-(3-D-glucosaminide substrate addition by fluorometer.

Data set [1] has as its target T2, Hexosaminidase D (Homo sapiens) (UniProt Q8WVB3).
T2 sequence (whole entry): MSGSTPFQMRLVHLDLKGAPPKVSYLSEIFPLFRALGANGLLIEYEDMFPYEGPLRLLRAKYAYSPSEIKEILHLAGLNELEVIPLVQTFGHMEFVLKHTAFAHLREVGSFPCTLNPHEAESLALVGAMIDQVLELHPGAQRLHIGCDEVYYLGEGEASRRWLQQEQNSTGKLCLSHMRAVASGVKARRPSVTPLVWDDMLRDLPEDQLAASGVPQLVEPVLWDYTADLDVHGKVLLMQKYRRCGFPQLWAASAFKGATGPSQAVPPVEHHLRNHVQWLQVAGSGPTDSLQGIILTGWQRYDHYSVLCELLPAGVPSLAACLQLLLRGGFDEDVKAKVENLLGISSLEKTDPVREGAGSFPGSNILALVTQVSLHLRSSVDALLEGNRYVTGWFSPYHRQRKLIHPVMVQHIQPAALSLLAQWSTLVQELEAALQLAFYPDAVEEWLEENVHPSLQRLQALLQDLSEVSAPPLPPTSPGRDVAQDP
Put plainly: Inhibition of human recombinant beta-hexosaminidase at 10 uM pretreated with compound followed by 4-nitrophenyl Nacetyl-beta-D-glucosaminide substrate addition by fluorometer.

Data set [2] in a line: Cytotoxicity against mouse HT-22 cells assessed as cell viability at 10 uM after 18 hrs by MTT assay. As to conditions: read-out: Activity. The format is toxicity, cell-based.
Data set [3] can be described thus: Tmax in ICR mouse plasma at 20 mg/kg, ip after 24 hrs by LC-MS/MS analysis. In kind it is ADME, organism-based.
Data set [4] in a line: Cmax in ICR mouse plasma at 20 mg/kg, ip after 24 hrs by LC-MS/MS analysis. The format is ADME, organism-based. Further details: dose 20 mg/kg, time 24 hrs, route ip.
A short description of data set [5]: AUCt in ICR mouse plasma at 20 mg/kg, ip after 24 hrs by LC-MS/MS analysis. In kind it is ADME, organism-based. Further details: time 24 hrs, dose 20 mg/kg, route ip.
The subject of data set [6] is Mus musculus. Description: Neuroprotective activity against amyloid beta (1 to 42)-induced cognitive impairement in ICR mouse assessed as spontaneous alteration at 20 mg/kg, ip for 3 days by Y-maze test. In kind it is functional, organism-based. As to conditions: time 3.0 day.
The nature of data set [7]: Ratio of drug level in ICR mouse brain to plasma at 20 mg/kg, ip after 24 hrs by LC-MS/MS analysis. The format is ADME, organism-based. As to conditions: brain and plasma, read-out: BPR.
The test system of data set [8] is Mus musculus. Put plainly: In vivo inhibition of OGA in amyloid-beta-induced ICR mouse assessed as decrease in 4-MUF level at 2 to 20 mg/kg, ip for 3 days by fluorescence analysis. The format is functional, organism-based. The note with it: dose 2-20 mg/kg, time 3.0 day.
Data set [9] is described as follows: AUCinfinity in ICR mouse plasma at 20 mg/kg, ip after 24 hrs by LC-MS/MS analysis. The format is ADME, organism-based. Further details: time 24 hrs, dose 20 mg/kg, route ip.
Data set [10] is described as follows: AUClast in ICR mouse brain at 20 mg/kg, ip after 24 hrs by LC-MS/MS analysis. Further details: time 24 hrs, dose 20 mg/kg, route ip. The format is ADME, organism-based.
Data set [11] can be described thus: Half life in ICR mouse plasma at 20 mg/kg, ip after 24 hrs by LC-MS/MS analysis. In kind it is ADME, organism-based.
Data set [12] relates to Brain. Description: Anti-alzheimer activity in mouse model assessed as decrease in amyloid beta level in brain at 20 mg/kg, ip for 3 days by ELISA relative to control. The format is functional. As to conditions: 72 h, time 3 day.
Data set [13] can be described thus: AUClast in ICR mouse plasma at 20 mg/kg, ip after 24 hrs by LC-MS/MS analysis. Further details: dose 20 mg/kg, time 24 hrs, route ip. In kind it is ADME, organism-based.
Data set [14] has as its system Brain. Put plainly: Anti-alzheimer activity in mouse model assessed as decrease in amyloid beta level in brain at 2 mg/kg, ip for 3 days by ELISA relative to control. The note with it: 72 h, time 3 day. The format is functional.
A short description of data set [15]: AUClast in ICR mouse brain at 50 mg/kg, ip after 24 hrs by LC-MS/MS analysis. The format is ADME, organism-based. Further details: dose 50 mg/kg, time 24 hrs, route ip.
In data set [16] the test system is Mus musculus. Description: Neuroprotective activity against amyloid beta (1 to 42)-induced cognitive impairement in ICR mouse assessed as […] spontaneous alteration at 50 mg/kg, ip for 3 days by Y-maze test. The format is functional, organism-based. As to conditions: time 3.0 day.
A short description of data set [17]: Ratio of drug level in ICR mouse brain to plasma at 50 mg/kg, ip after 24 hrs by LC-MS/MS analysis. The format is ADME, organism-based. As to conditions: brain and plasma, read-out: BPR.
In data set [18] the test system is Brain. Put plainly: Anti-alzheimer activity in mouse model assessed as decrease in amyloid beta level in brain at 50 mg/kg, ip for 3 days by ELISA relative to control. In kind it is functional. As to conditions: 72 h, time 3 day.
The species entered for data set [19] is Mus musculus. As to conditions: ICR, dose 50.0 mg/kg, route ip, time 3.0 day.
Data set [20] can be described thus: AUClast in ICR mouse plasma at 50 mg/kg, ip after 24 hrs by LC-MS/MS analysis. The format is ADME, organism-based. Further details: dose 50 mg/kg, time 24 hrs, route ip.

Each structure is given as a SMILES string. Active and inactive are the calls of the source. The rule behind the calls is not given here.

Consider `CC(=O)Nc1ncc(CN2CCN(CC(=O)Nc3ccccn3)CC2)s1`, for which the IC50 at Protein O-GlcNAcase is 1400 nM.
The same measure, in the same setting: the value for `CC(=O)Nc1ncc(CN2CCCC(C(=O)Nc3ccccc3)C2)s1` (centres undefined) was 450 nM.
With `CC(=O)N[C@H]1/C(=N\OC(=O)Nc2ccccc2)O[C@H](CO)[C@@H](O)[C@@H]1O`, in data set [1], the inhibition was 7.6%. Moreover, the viability at 18 h, 10 µM in data set [2] turned out to be 102%.
As to `CC(=O)Nc1ncc(CN2CCN(CC(=O)Nc3ccc(Cl)cc3)CC2C)s1` (centres undefined), the Tmax in data set [3] was found to be 21.6 min. The molecule further yielded a Cmax in data set [4] of 3200 ng/mL. The values for the exposure AUC(0-t) at 24 h in [5], in data set [10] and in data set [13] were 4980 ng·h/mL, 590 ng·h/mL and 2960 ng·h/mL, respectively. Further, the outcome in the data set on Mus musculus [6] was Active. Also, in data set [7], the Kp at 24 h amounted to 0.2. For the same molecule, the inhibition result with Mus musculus [8] is “Active”. Moreover, in data set [1], the inhibition was determined as 92.4%. In addition, the viability at 18 h, 10 µM in data set [2] came to 111%. Besides, in data set [9], the AUC(0-inf) was found to be 5210 ng·h/mL. Also, the half-life in data set [11] was 91.8 min. Besides, the inhibition in vivo at 20 mg/kg with Brain [12] was 71.8%. Further, the inhibition in vivo at 2 mg/kg in the data set with Brain [14] was determined as 42%.
In the case of `CC(=O)Nc1ncc(CN2CCN(CC(=O)Nc3ccccc3)CC2C)s1` (centres undefined), in data set [1], the inhibition came out at 103%. For the same molecule, the viability at 18 h, 10 µM in [2] stood at 98.6%.
In the case of `CC(=O)Nc1ncc(CN2CCN(CC(=O)Nc3ccc(Cc4ccccc4)cc3)CC2C)s1` (centres undefined), the inhibition in data set [1] came to 106%. In addition, the viability at 18 h, 10 µM in [2] came to 136%.
As to `CC(=O)Nc1ncc(CN2CCC(=CC(=O)NC3CCCCC3)CC2)s1`, at Protein O-GlcNAcase, the IC50 was 280 nM.
Regarding `CC(=O)Nc1ncc(CN2CCC(C(=O)Nc3ccc(C)cc3)CC2)s1`, the half-inhibitory concentration (IC50) at Protein O-GlcNAcase is 300 nM.
Still for that read-out and setting: the figure for `CC(=O)Nc1ncc(CN2CCCC(C(=O)NC3CCCCC3)C2)s1` (centres undefined) is 230 nM.
Take `CC(=O)Nc1ncc(CN2CCN(CC(=O)Nc3ccc(Cc4ccccc4)cc3)CC2)s1`: the inhibition in data set [1] is 101%. In data set [2], the viability at 18 h, 10 µM is 140%.
As to `CC(=O)Nc1ncc(CN2CCC(C(=O)Nc3ccc(F)cc3)CC2)s1`, the IC50 at Protein O-GlcNAcase amounted to 160 nM.
`CC(=O)Nc1ncc(CN2CCN(CC(=O)Nc3ccc(N4CCN(C(C)=O)CC4)cc3)CC2C)s1` (centres undefined): the inhibition in data set [1] was 73.5%. In data set [2], the viability at 18 h, 10 µM is 94.4%.
As to `CC(=O)Nc1ncc(CN2CCCC(C(=O)Nc3ccc(F)cc3)C2)s1` (centres undefined), the inhibition in data set [1] stood at 92.5%. For the same molecule, in data set [2], the viability at 18 h, 10 µM turned out to be 120%.
Consider `CC(=O)Nc1ncc(CN2CCN(CC(=O)NC3CCCCC3)CC2C)s1` (centres undefined), for which the inhibition in data set [1] amounted to 101%. Moreover, the viability at 18 h, 10 µM in data set [2] was 123%.
For `COc1ccc(CNC(=O)C=C2CCN(Cc3cnc(NC(C)=O)s3)CC2)cc1`, the inhibition in data set [1] was 89.6%. In addition, the viability at 18 h, 10 µM in data set [2] worked out at 109%.
For the molecule `CCNC1=N[C@@H]2[C@@H](O)[C@H](O)[C@@H](CO)O[C@@H]2S1`, the AUC(0-t) at 24 h was 590 ng·h/mL in [15] and 10000 ng·h/mL in data set [20]. The outcome in the data set with Mus musculus [16] was Active. The Kp at 24 h in [17] was found to be 0.07. For the same molecule, in data set [1], the inhibition amounted to 91.6%. For the same molecule, the viability at 18 h, 10 µM in data set [2] was 95.9%. In the data set with Brain [18], the inhibition in vivo at 50 mg/kg turned out to be 62.8%. In the data set listed under Mus musculus [19], the inhibition result was “Active”.
